Test results published in patent publication US4000297A, “N-p-chlorobenzoyl tryptophane, salts and compositions thereof” (priority 1971, dated 1976).
Where a name gives a salt, the structure may show the parent alone. Read-outs that look alike come from different tables or passages of the source.

Assays:
Assay type in all cases: in vivo
[1] = Acute toxicity (DL50) in the mouse; conditions: in vivo, iv (Table 1), read-out: DL50 value
Description: *1 DL50 in the mouse mg/kg iv.
Examples of differences between toxicity (DL50 in
the mouse) by intravenous administration and oral
administration in mg/kg. Variation in therapeutic

gastric secretion [2] = assay: Anti-secretive activity in the rat with lig. pylorus, iv; conditions: read-out: Activity A: anti-secretive activity ED50
gastric secretion [3] = assay: Anti-secretive activity in the rat by gastric stimulus, oral; conditions: oral (Table 1), read-out: Activity B: anti-secretive activity ED50
Description: *3 Anti-secretive activity in the rat by gastric stimulus, ED50 mg/k

[4] = rat with lig. pylorus, iv (Table 1)

Row | SMILES | LD50 [1] [mg/kg] | ED50 (gastric secretion [2]; [4]) [mg/kg] | ED50 (gastric secretion [3]) [mg/kg] | ED50 (gastric secretion [2]; Rattus norvegicus, iv) [mg/kg] | LD50 ([1]; iv) [mg/kg]
1 | O=C(N[C@@H](Cc1c[nH]c2ccccc12)C(=O)O)c1ccc([N+](=O)[O-])cc1 [Ex.29 (CR502), N-p-nitro-benzoyl-L-tryptophane. C2 H5 OH] | 806 | 339 | 270 |  | 
2 | O=C(N[C@@H](Cc1c[nH]c2ccccc12)C(=O)O)c1cccc(Cl)c1 [Ex.30 (CR546), N-m-chloro-benzoyl-L-tryptophane] | 560 |  | 147 | 210 | 
3 | O=C(N[C@@H](Cc1c[nH]c2ccccc12)C(=O)O)OCc1cccc2ccccc12 [Ex.31 (CR514), N-(carbo-alpha-naphthyl-methoxy)-L-tryptophane] |  | 128 | 94 |  | 160
4 | CCOC(=O)c1ccc(NC(=O)[C@H](Cc2c[nH]c3ccccc23)NC(=O)OCc2ccccc2)cc1 [Ex.33 (CR401), Ethyl-N-carbobenzoxy-L-tryptophyl-p-aminobenzoate] |  | 470 | 320 |  | 1000
5 | O=C(N[C@@H](Cc1c[nH]c2ccccc12)C(=O)Nc1ccc(C(=O)Oc2ccc(Cl)cc2Cl)cc1)OCc1ccccc1 [Ex.34 (CR432), 2,4-Dichlorophenyl-N-carbobenzoxy-L-tryptophyl-p-aminobenzoate] |  | 370 | 310 |  | 1000
6 | O=C(N[C@@H](Cc1c[nH]c2ccccc12)C(=O)Nc1ccc(C(=O)Oc2ccccc2)cc1)OCc1ccccc1 [Ex.35 (CR411), Phenyl-N-carbobenzoxy-L-tryptophyl-p-aminobenzoate] |  | 610 | 460 |  | 1000
7 | O=C(N[C@@H](Cc1c[nH]c2ccccc12)C(=O)Nc1ccc(C(=O)OCc2ccccc2)cc1)OCc1ccccc1 [Ex.36 (CR430), Benzyl-N-carbobenzoxy-L-tryptophyl-p-aminobenzoate] |  | 690 | 520 |  | 1000
8 | CCOC(=O)c1ccc(NC(=O)[C@H](Cc2c[nH]c3ccccc23)NC(=O)c2ccccc2)cc1 [Ex.37 (CR402), Ethyl-N-benzoyl-L-tryptophyl-p-aminobenzoate] | 1000 | 310 | 460 |  | 
9 | COC(=O)Cc1ccc(NC(=O)[C@H](Cc2c[nH]c3ccccc23)NC(=O)OCc2ccccc2)cc1 [Ex.38 (CR417), Methyl-N-carbobenzoxy-L-tryptophyl-p-aminophenylacetate] |  | 300 | 300 |  | 1000
10 | O=C(Cc1ccc(NC(=O)[C@H](Cc2c[nH]c3ccccc23)NC(=O)OCc2ccccc2)cc1)OCc1ccccc1 [Ex.39 (CR419), Benzyl-N-carbobenzoxy-L-tryptophyl-p-aminophenylacetate] |  | 430 | 350 |  | 1000
11 | COC(=O)Cc1ccc(NC(=O)[C@H](Cc2c[nH]c3ccccc23)NC(=O)c2ccccc2)cc1 [Ex.40 (CR418), Methyl-N-benzoyl-L-tryptophyl-p-aminophenylacetate] | 1000 | 290 | 180 |  | 
12 | O=C(O)c1ccc(NC(=O)[C@H](Cc2c[nH]c3ccccc23)NC(=O)c2ccccc2)cc1 [Ex.42 (CR404), N-benzoyl-L-tryptophyl-p-aminobenzoic acid] | 500 | 284 | 220 |  | 
13 | O=C(N[C@@H](Cc1c[nH]c2ccccc12)C(=O)Nc1ccc(C(=O)O)cc1)OCc1ccccc1 [Ex.43 (CR422), N-Carbobenzoxy-L-tryptophyl-p-aminobenzoic acid] |  | 321 | 180 |  | 460
14 | O=C(O)Cc1ccc(NC(=O)[C@H](Cc2c[nH]c3ccccc23)NC(=O)OCc2ccccc2)cc1 [Ex.44 (CR435), N-carbobenzoxy-L-tryptophyl-p-aminophenylacetic acid] |  | 370 | 210 |  | 980
15 | O=C(Cc1ccc(Cl)cc1)N[C@@H](Cc1c[nH]c2ccccc12)C(=O)O [Ex.47 (CR584), N-p-chlorophenylacetyl-L-tryptophane] | 545 | 487 | 270 |  | 
16 | CN(C)CCOC(=O)[C@H](Cc1c[nH]c2ccccc12)NC(=O)OCc1ccc(Cl)cc1 [Ex.48 (CR583), Dimethylaminoester of N-p-chlorocarbobenzoxy-L-trytophane hydrochloride] |  | 170 | 121 |  | 210
17 | CCN(CC)CCOC(=O)[C@H](Cc1c[nH]c2ccccc12)NC(=O)c1ccc(C)cc1 [Ex.49 (CR636), Diethylaminoethylester of N-p-toluyl-L-tryptophane oxalate] | 320 | 160 | 120 |  | 
18 | O=C(N[C@H](Cc1c[nH]c2ccccc12)C(=O)O)c1ccccc1Cl [Ex.52 (CR637), N-o-chlorobenzoyl-D-tryptophane] | 1530 | 440 | 390 |  | 
19 | O=C(N[C@@H](Cc1c[nH]c2ccccc12)C(=O)O)OCc1cccc(Cl)c1 [Ex. 2 (CR527), N-m-chloro-carbobenzoxy-L-tryptophane] |  |  | 147 | 176 | 450
